{"source": "patent US4906565A", "about": "“Method for the selective detection of microbial nucleotides” (Minnesota Mining and Manufacturing Company, priority 1986, dated 1990)", "format_in_all_cases": "biochemical", "key": {"[1]": {"biological_target": "T1, firefly luciferase (Photinus pyralis, UniProt P08659)", "T1 construct": "purchased Lumac/3M Lumit PM", "T1 sequence (P08659 whole entry)": "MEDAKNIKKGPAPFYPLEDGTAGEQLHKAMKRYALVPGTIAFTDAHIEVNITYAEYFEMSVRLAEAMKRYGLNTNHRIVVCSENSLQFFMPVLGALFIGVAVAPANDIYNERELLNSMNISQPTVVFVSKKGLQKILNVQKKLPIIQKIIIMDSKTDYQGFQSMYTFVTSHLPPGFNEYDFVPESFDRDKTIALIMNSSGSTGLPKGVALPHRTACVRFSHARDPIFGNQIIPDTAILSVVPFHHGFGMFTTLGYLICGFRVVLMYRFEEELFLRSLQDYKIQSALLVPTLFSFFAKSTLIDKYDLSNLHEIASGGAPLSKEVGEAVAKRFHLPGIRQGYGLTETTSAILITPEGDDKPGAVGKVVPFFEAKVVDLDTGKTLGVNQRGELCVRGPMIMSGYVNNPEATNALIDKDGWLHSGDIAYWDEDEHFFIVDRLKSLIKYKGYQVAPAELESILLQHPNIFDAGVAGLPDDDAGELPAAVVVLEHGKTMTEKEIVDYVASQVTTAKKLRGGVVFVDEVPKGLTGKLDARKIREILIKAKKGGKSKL", "assay": "Effect of inhibitor on the bioluminescent assay of ATP", "procedure": "Assay: from each sample triplicate 100 μl aliquots were taken. In those aliquots ATP was measured as described.\nAssay: from each sample triplicate 100 μl aliquots were taken. ATP in those aliquots was measured as described.\nAssay: From each sample triplicate 100 μl aliquots were taken and ATP was measured as described.\n(§1) Protocol: Eight samples were prepared using materials described above and previously, as shown in TABLE 7-1 and incubated for various periods of time (i.e., 0, 5, 10 and […]) before aliquots were taken and assayed as described.\n(§2) Protocol: Increasing concentrations of hexokinase, with and without PCMPSA were prepared according to TABLE 8-1 using materials described above and previously."}, "[2]": {"system": "hexokinase", "assay": "Inhibition of hexokinase by PCMPSA, bioluminescent ATP assay", "settings": "PCMPSA 1.0 mM", "procedure": "as §1, §2"}, "[3]": {"biological_target": "T2, acetate kinase (Escherichia coli, UniProt P0A6A3)", "T2 construct": "purchased Boehringer Mannheim", "T2 sequence (P0A6A3 1-400)": "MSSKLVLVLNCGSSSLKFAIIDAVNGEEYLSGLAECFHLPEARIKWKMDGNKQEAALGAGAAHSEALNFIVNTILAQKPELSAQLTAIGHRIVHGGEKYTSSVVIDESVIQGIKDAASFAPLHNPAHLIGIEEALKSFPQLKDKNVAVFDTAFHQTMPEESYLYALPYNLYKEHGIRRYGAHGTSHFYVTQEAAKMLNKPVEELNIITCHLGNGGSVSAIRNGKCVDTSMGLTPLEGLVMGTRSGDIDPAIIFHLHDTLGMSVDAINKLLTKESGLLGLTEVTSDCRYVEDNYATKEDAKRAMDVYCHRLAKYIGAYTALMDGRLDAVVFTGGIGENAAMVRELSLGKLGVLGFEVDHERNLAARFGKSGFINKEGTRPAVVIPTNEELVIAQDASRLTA", "assay": "Inhibition of acetate kinase by PCMPSA", "settings": "PCMPSA 0.5 mM", "procedure": "Acetate kinase was added to initiate enzyme activity. […] ATP in those aliquots was assayed as described."}, "[4]": {"system": "glycerokinase", "assay": "Inhibition of glycerokinase by PCMPSA in milk / orange juice samples", "settings": "PCMPSA 0.5 mM; for % Control: control = same without glycerol; for RLU: milk/FRA, ATP added in SRA, 15 seconds", "procedure": "Protocol: Samples were prepared containing: 1000 μl milk (local distributor, half-cream, sterilized); 800 μl FRA, 200 μl of a commercially available first releasing agent which is prepared in buffer for use with samples such as fruit juices (F-NRS, Lumac/3M); and 2.45 mM MgSO4. Glycerol, if present, was at a final concentration of 1.47 mM. ATP (10 mg/ml) was added in SRA to begin each assay, and PCMPSA if present, was also in that SRA aliquot in an amount sufficient to yield a final concentration of 0.5 mM.\n(§3) To begin the assay, 100 μl of SRA/ATP ±PCMPSA was added to 50 μl of the appropriate sample. After 15 seconds (the period normally allowed for microbial nucleotide extraction using SRA) 100 μl Luciferase-luciferin solution was added and ATP was measured as described earlier.\n(§4) Protocol: Samples with orange juice were prepared with 500 μl orange juice (Riedel, Netherlands, no preservatives, pasteurized), 500 μl buffered FRA, 3 mM glycerol, and with or without 0.5 mM PCMPSA. These were incubated over 0, 5, 10 and 20 minutes at four different glycerokinase concentrations.\n(§5) Samples with milk were prepared similarly, but using 500 μl raw milk (fresh, local farmer) and 500 μl FRA in place of buffered FRA."}, "[5]": {"biological_target": "T1, firefly luciferase", "assay": "Effect of inhibitor on the bioluminescent assay of ATP", "remark": "listed apart in the source"}, "[6]": {"assay": "ATP inactivation by glycerokinase or apyrase in milk / orange juice samples", "settings": "apyrase 0.096 U/mL; raw milk:FRA 500:500 μl", "procedure": "Protocol: Four samples were prepared as shown in TABLE 11-1 using materials described above and earlier, and aliquots taken at 0, 2.5, 5, 10 and 20 minutes. […]\nas §3, §4, §5"}, "[7]": {"settings": "PCMPSA 1.0 mM alone, no hexokinase, buffer"}, "[8]": {"settings": "PCMPSA 1.0 mM alone, no hexokinase, in SRA"}, "[9]": {"settings": "acetate kinase 1.7 U/ml, magnesium acetate 3 mM, FRA"}, "[10]": {"settings": "glycerokinase 0.42 U/ml, glycerol 1.47 mM"}, "[11]": {"settings": "glycerokinase 1.04 U/ml, glycerol 1.47 mM"}, "[12]": {"settings": "glycerokinase 2.06 U/ml, glycerol 1.47 mM"}, "[13]": {"settings": "orange juice, glycerokinase 0.85 U/ml"}, "[14]": {"settings": "orange juice, glycerokinase 2.12 U/ml"}, "[15]": {"settings": "orange juice, glycerokinase 4.25 U/ml"}, "[16]": {"settings": "raw milk, glycerokinase 0.85 U/ml"}, "[17]": {"settings": "raw milk, glycerokinase 2.12 U/ml"}, "[18]": {"settings": "raw milk, glycerokinase 4.25 U/ml"}}, "data": [{"compound": "O=S(=O)(O)c1cc[c]([Hg][Cl])cc1", "note": "[PCMPSA, p-chloromercuriphenylsulfonic acid]", "values": [{"measurement": "RLU 10 min.", "setting": "[1]; [7]", "result": 29569, "unit": "RLU"}, {"measurement": "RLU 15 min.", "setting": "[1]; [7]", "result": 29742, "unit": "RLU"}, {"measurement": "RLU 0 min.", "setting": "[1]; [8]", "result": 26457, "unit": "RLU"}, {"measurement": "interference with the bioluminescent assay (conclusion in words)", "setting": "[1]; PCMPSA alone, sample 5, buffer", "result": "does not substantially interfere"}, {"measurement": "inhibition of hexokinase (conclusion in words)", "setting": "[2]; buffer", "result": "at least partly inhibited"}, {"measurement": "RLU 5 min.", "setting": "[2]; hexokinase 0.14 U/ml, buffer", "result": 25884, "unit": "RLU"}, {"measurement": "RLU 10 min.", "setting": "[2]; hexokinase 0.14 U/ml, buffer", "result": 23717, "unit": "RLU"}, {"measurement": "RLU 15 min.", "setting": "[2]; hexokinase 0.14 U/ml, buffer", "result": 24771, "unit": "RLU"}, {"measurement": "RLU 5 min.", "setting": "[2]; hexokinase 0.14 U, in SRA", "result": 15397, "unit": "RLU"}, {"measurement": "RLU 10 min.", "setting": "[2]; hexokinase 0.14 U, in SRA", "result": 15221, "unit": "RLU"}, {"measurement": "RLU 5 min.", "setting": "[2]; hexokinase 0.28 U/ml, buffer", "result": 19116, "unit": "RLU"}, {"measurement": "RLU 10 min.", "setting": "[2]; hexokinase 0.28 U/ml, buffer", "result": 18228, "unit": "RLU"}, {"measurement": "RLU 15 min.", "setting": "[2]; hexokinase 0.28 U/ml, buffer", "result": 16919, "unit": "RLU"}, {"measurement": "RLU 5 min.", "setting": "[2]; hexokinase 0.28 U, in SRA", "result": 11674, "unit": "RLU"}, {"measurement": "RLU 10 min.", "setting": "[2]; hexokinase 0.28 U, in SRA", "result": 12473, "unit": "RLU"}, {"measurement": "RLU 5 min.", "setting": "[2]; hexokinase 0.70 U/ml, buffer", "result": 13353, "unit": "RLU"}, {"measurement": "RLU 10 min.", "setting": "[2]; hexokinase 0.70 U/ml, buffer", "result": 11760, "unit": "RLU"}, {"measurement": "RLU 15 min.", "setting": "[2]; hexokinase 0.70 U/ml, buffer", "result": 9375, "unit": "RLU"}, {"measurement": "RLU 5 min.", "setting": "[2]; hexokinase 0.70 U, in SRA", "result": 4212, "unit": "RLU"}, {"measurement": "RLU 10 min.", "setting": "[2]; hexokinase 0.70 U, in SRA", "result": 3011, "unit": "RLU"}, {"measurement": "inhibition of hexokinase (conclusion in words)", "setting": "[2]; in the presence of SRA", "result": "sufficiently inhibited"}, {"measurement": "inhibition of acetate kinase (conclusion in words)", "setting": "[3]", "result": "fairly effective"}, {"measurement": "RLU 0 min.", "setting": "[3]; [9]", "result": 4878, "unit": "RLU"}, {"measurement": "RLU 5 min.", "setting": "[3]; [9]", "result": 2911, "unit": "RLU"}, {"measurement": "RLU 10 min.", "setting": "[3]; [9]", "result": 2263, "unit": "RLU"}, {"measurement": "RLU 15 min.", "setting": "[3]; [9]", "result": 2362, "unit": "RLU"}, {"measurement": "% Control", "setting": "[4]; [10]", "result": 91, "unit": "%"}, {"measurement": "RLU", "setting": "[4]; [10]", "result": 26407, "unit": "RLU"}, {"measurement": "RLU", "setting": "[4]; glycerokinase 0.42 U/ml, no glycerol (control)", "result": 28957, "unit": "RLU"}, {"measurement": "% Control", "setting": "[4]; [11]", "result": 78, "unit": "%"}, {"measurement": "RLU", "setting": "[4]; [11]", "result": 17213, "unit": "RLU"}, {"measurement": "RLU", "setting": "[4]; glycerokinase 1.04 U/ml, no glycerol (control)", "result": 21901, "unit": "RLU"}, {"measurement": "% Control", "setting": "[4]; [12]", "result": 58, "unit": "%"}, {"measurement": "RLU", "setting": "[4]; [12]", "result": 6404, "unit": "RLU"}, {"measurement": "RLU", "setting": "[4]; glycerokinase 2.06 U/ml, no glycerol (control)", "result": 15129, "unit": "RLU"}, {"measurement": "inhibition of glycerokinase (conclusion in words)", "setting": "[4]; orange juice and milk, glycerokinase up to 4.25 U/ml", "result": "sufficient to inhibit even the highest concentrations of enzyme used"}, {"measurement": "RLU after 0 min", "setting": "[4]; [13]", "result": 142369, "unit": "RLU"}, {"measurement": "RLU after 5 min", "setting": "[4]; [13]", "result": 145464, "unit": "RLU"}, {"measurement": "RLU after 10 min", "setting": "[4]; [13]", "result": 150927, "unit": "RLU"}, {"measurement": "RLU after 20 min", "setting": "[4]; [13]", "result": 155082, "unit": "RLU"}, {"measurement": "RLU after 0 min", "setting": "[4]; [14]", "result": 152487, "unit": "RLU"}, {"measurement": "RLU after 5 min", "setting": "[4]; [14]", "result": 143354, "unit": "RLU"}, {"measurement": "RLU after 10 min", "setting": "[4]; [14]", "result": 132269, "unit": "RLU"}, {"measurement": "RLU after 20 min", "setting": "[4]; [14]", "result": 151899, "unit": "RLU"}, {"measurement": "RLU after 0 min", "setting": "[4]; [15]", "result": 116232, "unit": "RLU"}, {"measurement": "RLU after 5 min", "setting": "[4]; [15]", "result": 131999, "unit": "RLU"}, {"measurement": "RLU after 10 min", "setting": "[4]; [15]", "result": 123137, "unit": "RLU"}, {"measurement": "RLU after 20 min", "setting": "[4]; [15]", "result": 125784, "unit": "RLU"}, {"measurement": "RLU after 0 min", "setting": "[4]; [16]", "result": 1382, "unit": "RLU"}, {"measurement": "RLU after 5 min", "setting": "[4]; [16]", "result": 1494, "unit": "RLU"}, {"measurement": "RLU after 10 min", "setting": "[4]; [16]", "result": 1348, "unit": "RLU"}, {"measurement": "RLU after 20 min", "setting": "[4]; [16]", "result": 1280, "unit": "RLU"}, {"measurement": "RLU after 0 min", "setting": "[4]; [17]", "result": 829, "unit": "RLU"}, {"measurement": "RLU after 5 min", "setting": "[4]; [17]", "result": 1340, "unit": "RLU"}, {"measurement": "RLU after 10 min", "setting": "[4]; [17]", "result": 1342, "unit": "RLU"}, {"measurement": "RLU after 20 min", "setting": "[4]; [17]", "result": 1233, "unit": "RLU"}, {"measurement": "RLU after 0 min", "setting": "[4]; [18]", "result": 1173, "unit": "RLU"}, {"measurement": "RLU after 5 min", "setting": "[4]; [18]", "result": 1314, "unit": "RLU"}, {"measurement": "RLU after 10 min", "setting": "[4]; [18]", "result": 1374, "unit": "RLU"}, {"measurement": "RLU after 20 min", "setting": "[4]; [18]", "result": 1028, "unit": "RLU"}, {"measurement": "RLU 0 min.", "setting": "[5]; [7]", "result": 29494, "unit": "RLU"}, {"measurement": "RLU 10 min.", "setting": "[5]; [8]", "result": 25284, "unit": "RLU"}, {"measurement": "interference with the bioluminescent assay of ATP (conclusion in words)", "setting": "[5]; PCMPSA alone, in SRA", "result": "only very slight interference, if at all"}]}, {"compound": "apyrase", "values": [{"measurement": "RLU after 0 min", "setting": "[6]", "result": 64594, "unit": "RLU"}, {"measurement": "RLU after 2.5 min.", "setting": "[6]", "result": 3272, "unit": "RLU"}, {"measurement": "RLU after 5 min", "setting": "[6]", "result": 1130, "unit": "RLU"}, {"measurement": "RLU after 20 min", "setting": "[6]", "result": 243, "unit": "RLU"}]}]}
